Measured values published in patent publication US20110039825A1, “LIGANDS OF ALPHA-ADRENOCEPTORS, DOPAMINE, HISTAMINE, IMIDAZOLINE AND SEROTONIN RECEPTORS AND THEIR USE” (Alla Chem, LLC, priority 2007, published 2011).

Assays:
adrenergic receptor α1B = biological target: T1, adrenergic receptor α1B (Rattus norvegicus, UniProt P15823); experiment: radioligand binding to adrenergic receptor α1B ([3H] Prazosin); settings: 10 μM ligand
T1 construct: membrane species from rat liver (rat of Wistar breed) are prepared; from tissue; host or cells: rat (Wistar) liver membranes
T1 sequence (P15823 1-515): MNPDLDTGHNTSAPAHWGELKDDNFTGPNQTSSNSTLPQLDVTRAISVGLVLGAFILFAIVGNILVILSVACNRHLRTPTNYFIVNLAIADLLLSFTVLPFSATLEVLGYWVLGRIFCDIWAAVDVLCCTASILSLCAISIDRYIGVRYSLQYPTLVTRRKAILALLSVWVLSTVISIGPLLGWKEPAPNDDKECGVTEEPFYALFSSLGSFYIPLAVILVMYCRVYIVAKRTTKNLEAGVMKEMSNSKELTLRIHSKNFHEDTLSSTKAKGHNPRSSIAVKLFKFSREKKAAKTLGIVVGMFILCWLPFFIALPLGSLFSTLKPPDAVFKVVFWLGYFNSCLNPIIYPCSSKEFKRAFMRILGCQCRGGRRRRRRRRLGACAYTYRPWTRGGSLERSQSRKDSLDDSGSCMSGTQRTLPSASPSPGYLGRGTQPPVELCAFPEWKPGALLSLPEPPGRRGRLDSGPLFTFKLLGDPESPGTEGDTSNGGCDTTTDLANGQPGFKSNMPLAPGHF
Text: Species heterogeneity of hepatic α1A-, α1B-, and α1C-subtypes. Biochem Biophys Res Commun. 186:760-7676 1992]. […] Prazosin is used as positive control.

human α1D receptor = biological target: T2, human α1D receptor (Homo sapiens, UniProt P25100); experiment: radioligand binding to adrenergic receptor α1D ([3H] Prazosin); settings: 10 μM ligand
T2 construct: expressed in transfected cells; host or cells: HEK-293
T2 sequence (P25100 1-572): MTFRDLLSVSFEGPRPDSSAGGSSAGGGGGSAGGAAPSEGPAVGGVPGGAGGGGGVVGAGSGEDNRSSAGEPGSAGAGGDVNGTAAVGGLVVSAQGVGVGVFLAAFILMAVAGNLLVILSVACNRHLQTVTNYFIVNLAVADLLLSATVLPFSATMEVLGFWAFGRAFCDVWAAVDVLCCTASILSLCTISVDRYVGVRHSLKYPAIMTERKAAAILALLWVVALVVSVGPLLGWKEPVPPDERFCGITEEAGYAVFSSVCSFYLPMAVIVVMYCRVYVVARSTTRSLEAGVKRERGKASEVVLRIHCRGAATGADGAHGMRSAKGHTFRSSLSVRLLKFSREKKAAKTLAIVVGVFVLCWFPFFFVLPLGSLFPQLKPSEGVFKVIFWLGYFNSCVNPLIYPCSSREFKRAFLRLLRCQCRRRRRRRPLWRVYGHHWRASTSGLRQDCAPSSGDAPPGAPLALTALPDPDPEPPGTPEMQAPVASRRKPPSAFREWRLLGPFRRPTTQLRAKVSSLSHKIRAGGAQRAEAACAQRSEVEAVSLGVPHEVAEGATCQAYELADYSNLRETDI
Text: 6-C. […] For this purpose sDNA of human α1D receptor is expressed in HEK-293 cells, as it was described in [T L Theroux, T A Esbenshade, R D Peavy and K P Minneman. Coupling efficiencies of human alpha 1-adrenergic receptor subtypes: titration of receptor density and responsiveness with inducible and repressible expression vectors. Mol. Pharmacol.; 50: 1376-1387, 1996]. […] Prazosin is used as positive control.

human D2S receptor = biological target: T3, human D2S receptor (Homo sapiens, UniProt P14416); experiment: radioligand binding to dopamine receptor D2S ([3H] Spiperone); settings: 10 μM ligand
T3 construct: expressed in transfected cells; host or cells: CHO
T3 sequence (P14416 1-414 isoform P14416-2): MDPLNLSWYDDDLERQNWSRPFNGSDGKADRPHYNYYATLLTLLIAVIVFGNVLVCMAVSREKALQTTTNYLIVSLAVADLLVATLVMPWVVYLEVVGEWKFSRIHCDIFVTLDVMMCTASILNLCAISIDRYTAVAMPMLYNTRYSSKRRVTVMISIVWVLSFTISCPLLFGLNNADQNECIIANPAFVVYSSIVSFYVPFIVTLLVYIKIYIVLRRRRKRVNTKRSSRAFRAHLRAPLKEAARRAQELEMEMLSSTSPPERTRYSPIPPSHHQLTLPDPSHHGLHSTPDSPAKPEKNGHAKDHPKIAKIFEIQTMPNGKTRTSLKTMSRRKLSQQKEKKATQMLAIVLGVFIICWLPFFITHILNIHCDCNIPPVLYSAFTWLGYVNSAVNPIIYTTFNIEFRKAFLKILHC
Text: 7-C. […] For this purpose sDNA of human D2S receptor is expressed in CHO cells, as described in [Hayes G, Biden T J, Selbie L A and Shine J, Structural subtypes of the dopamine D2 receptor are functionally distinct. […] Mol. Endocrinol. […] Mol. Endocrinol. […] Spiperone is used as positive control.

human D3 receptor = biological target: T4, human D3 receptor (Homo sapiens, UniProt P35462); experiment: radioligand binding to dopamine receptor D3 ([3H] Spiperone); settings: 10 μM ligand
T4 construct: expressed in transfected cells; host or cells: CHO
T4 sequence (P35462 whole entry): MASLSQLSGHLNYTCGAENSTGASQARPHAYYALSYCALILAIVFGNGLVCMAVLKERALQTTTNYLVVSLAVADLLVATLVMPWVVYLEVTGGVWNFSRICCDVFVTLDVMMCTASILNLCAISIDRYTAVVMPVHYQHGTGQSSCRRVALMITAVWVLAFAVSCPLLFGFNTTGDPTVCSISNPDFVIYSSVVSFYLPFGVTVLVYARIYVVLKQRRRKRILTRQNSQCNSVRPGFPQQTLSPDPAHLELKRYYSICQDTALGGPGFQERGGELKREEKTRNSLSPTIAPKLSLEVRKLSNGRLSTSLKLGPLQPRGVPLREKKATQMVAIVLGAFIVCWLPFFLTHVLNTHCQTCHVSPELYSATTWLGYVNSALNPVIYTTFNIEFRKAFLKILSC
Text: For this purpose sDNA of human D3 receptor is expressed in CHO cells, as it was described in [Sokoloff P, Giros B, Martres M-P, Bouthenet M-L and Schwartz J-C. Molecular cloning and characterization of novel dopamine receptor (D3) as target for neuroleptics. Nature. […] Molecular cloning and characterization of novel dopamine receptor (D3) as target for neuroleptics. Nature. […] Spiperone is used as positive control.

human H1 receptor = biological target: T5, human H1 receptor (Homo sapiens, UniProt P35367); experiment: radioligand binding to histamine receptor H1 ([3H] Pyrilamine); settings: 10 μM ligand
T5 construct: expressed in transfected cells; host or cells: CHO-K1
T5 sequence (P35367 whole entry): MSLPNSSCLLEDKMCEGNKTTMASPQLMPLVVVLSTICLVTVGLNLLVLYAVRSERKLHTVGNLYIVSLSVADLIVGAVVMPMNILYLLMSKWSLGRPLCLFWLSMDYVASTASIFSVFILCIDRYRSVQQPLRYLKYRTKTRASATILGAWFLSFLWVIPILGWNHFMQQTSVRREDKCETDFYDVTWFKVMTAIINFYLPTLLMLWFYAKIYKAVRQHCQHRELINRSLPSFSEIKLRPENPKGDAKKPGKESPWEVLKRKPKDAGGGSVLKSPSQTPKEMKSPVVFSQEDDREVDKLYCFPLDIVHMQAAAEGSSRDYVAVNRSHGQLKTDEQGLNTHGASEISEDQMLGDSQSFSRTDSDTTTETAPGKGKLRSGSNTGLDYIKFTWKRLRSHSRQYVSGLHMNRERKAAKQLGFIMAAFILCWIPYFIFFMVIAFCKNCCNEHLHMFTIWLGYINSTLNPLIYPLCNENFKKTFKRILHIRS
Text: Biochem Biophys Res Comm. 197(3): 1601-1608, 1993]. […] Biochem Biophys Res Comm. 197(3): 1601-1608, 1993].
Pyrilamine is used as positive control.

human H2 receptor = biological target: T6, human H2 receptor (Homo sapiens, UniProt P25021); experiment: radioligand binding to histamine receptor H2 ([125I] Aminopotentidine); settings: 10 μM ligand
T6 construct: expressed in transfected cells; host or cells: CHO-K1
T6 sequence (P25021 whole entry): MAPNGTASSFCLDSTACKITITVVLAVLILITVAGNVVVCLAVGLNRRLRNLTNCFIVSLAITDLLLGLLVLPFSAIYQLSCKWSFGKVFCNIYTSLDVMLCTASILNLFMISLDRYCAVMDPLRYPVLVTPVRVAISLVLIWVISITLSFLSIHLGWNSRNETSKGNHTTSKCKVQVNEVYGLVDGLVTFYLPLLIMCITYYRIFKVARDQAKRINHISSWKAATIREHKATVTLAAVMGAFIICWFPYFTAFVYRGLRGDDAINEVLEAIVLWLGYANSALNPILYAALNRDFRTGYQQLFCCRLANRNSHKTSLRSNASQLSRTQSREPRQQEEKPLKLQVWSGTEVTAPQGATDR
Text: Proc Natl Acad Sci USA. 87(5): 1658-1662, 1990]. […] Proc Natl Acad Sci USA. 87(5): 1658-1662, 1990]. […] Tiotidine is used as positive control.

recombinant human 5-HT1A = biological target: T7, recombinant human 5-HT1A (Homo sapiens, UniProt P08908); experiment: radioligand binding to serotonin receptor 5-HT1A ([3H] 8-OH-DPAT); settings: ligand concentration 1 μM
T7 construct: expressed in transfected cells; host or cells: CHO
T7 sequence (P08908 1-422): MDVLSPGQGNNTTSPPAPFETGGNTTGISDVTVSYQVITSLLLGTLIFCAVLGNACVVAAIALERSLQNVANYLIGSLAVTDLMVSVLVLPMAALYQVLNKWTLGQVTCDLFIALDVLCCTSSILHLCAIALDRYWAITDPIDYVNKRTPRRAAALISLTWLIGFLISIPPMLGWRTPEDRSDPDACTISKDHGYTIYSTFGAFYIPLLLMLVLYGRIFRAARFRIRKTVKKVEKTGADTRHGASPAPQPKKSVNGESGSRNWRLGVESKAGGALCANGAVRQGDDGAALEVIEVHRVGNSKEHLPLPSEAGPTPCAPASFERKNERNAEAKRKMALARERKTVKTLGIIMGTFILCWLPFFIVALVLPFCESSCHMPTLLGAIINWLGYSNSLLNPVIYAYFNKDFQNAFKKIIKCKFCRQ
Text: J Pharmacol Exp Ther. 306(1): 301-309, 2003]. […] Metergoline is used as positive control.

[1] = biological target: T8, recombinant human 5-HT6 receptor (Homo sapiens, UniProt P50406); experiment: radioligand binding to serotonin receptor 5-HT6 ([3H] Lysergic acid diethylamide); settings: ligand concentration 1 μM; read-out: 5-HT6 % inhibition
T8 construct: expressed in transfected cells; host or cells: HeLa
T8 sequence (P50406 whole entry): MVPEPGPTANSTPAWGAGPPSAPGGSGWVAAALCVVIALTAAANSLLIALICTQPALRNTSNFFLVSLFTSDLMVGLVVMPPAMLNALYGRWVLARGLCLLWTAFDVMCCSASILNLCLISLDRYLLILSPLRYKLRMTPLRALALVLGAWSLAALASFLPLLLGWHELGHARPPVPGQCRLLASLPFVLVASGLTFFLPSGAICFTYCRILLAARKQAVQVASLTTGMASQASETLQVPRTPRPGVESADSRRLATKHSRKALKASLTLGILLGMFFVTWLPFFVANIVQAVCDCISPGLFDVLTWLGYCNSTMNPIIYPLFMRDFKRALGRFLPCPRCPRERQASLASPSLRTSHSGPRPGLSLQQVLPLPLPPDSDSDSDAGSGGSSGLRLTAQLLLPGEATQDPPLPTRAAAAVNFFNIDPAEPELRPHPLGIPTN
Text: Mol. Pharmacol. 43:320-327, 1993]. […] Methiothepin is used as positive control.

human D4.2 receptor = biological target: T9, human D4.2 receptor (Homo sapiens, UniProt P21917, DEL265-296); experiment: radioligand binding to dopamine receptor D4.2 ([3H] Spiperone); settings: 10 μM ligand
T9 sequence (P21917 with tags, fused parts or gaps DEL265-296): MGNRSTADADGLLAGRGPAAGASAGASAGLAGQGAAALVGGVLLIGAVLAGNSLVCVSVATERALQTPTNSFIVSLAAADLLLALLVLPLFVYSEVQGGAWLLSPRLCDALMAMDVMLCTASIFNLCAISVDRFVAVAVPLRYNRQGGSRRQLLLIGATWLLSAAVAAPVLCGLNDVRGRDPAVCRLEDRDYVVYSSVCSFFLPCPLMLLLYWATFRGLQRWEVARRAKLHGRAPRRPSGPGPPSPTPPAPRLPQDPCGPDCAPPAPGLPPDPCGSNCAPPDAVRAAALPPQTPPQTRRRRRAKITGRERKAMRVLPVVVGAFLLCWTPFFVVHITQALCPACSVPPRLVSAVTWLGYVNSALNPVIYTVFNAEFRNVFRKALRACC
Description: Screening of the disclosed compounds for potential ability to interact with dopamine receptor D4.2 is carried out by method of radioligand binding. […] From the cells transfected in this way membrane species are prepared by homogenization of these cells in glass homogenizer with the subsequent separation of plasmatic membranes from cell nuclei, mitochondrias and cell wreckages by differential centrifugation. […] After incubation samples are filtered in vacuo on glass-microfiber filters G/F (Millipor, USA), filters are washed three times with cold solution of medium and radioactivity is measured by scintillation counter MicroBeta 340 (Perkin Elmer, USA). Nonspecific binding which makes up 10% of the overall binding is determined by incubation of membrane species with radioligand in the presence of 10 μM of Haloperidol.
Spiperone is used as positive control. Tested compounds' binding to the receptor is determined by their ability to displace radioligand and expressed in percent of displacement (% I). Values of % I are calculated according to the following equation:
wherein: TA—is overall radioactivity in the presence of radioligand only, CA—is radioactivity in the presence of radioligand and tested compound and NA—is radioactivity in the presence of radioligand and Haloperidol (10 μM).

With `Cc1ccc2c(c1)[C@H]1CN(C)CCC[C@@H]1N2CCc1ccc(C)nc1` (relative stereo) [1.6.2(11)] as the compound, how does the “α-Adrenoceptor α1B, % inhibition” value (adrenergic receptor α1B) read?
The value was 94%.

And the “α-Adrenoceptor α1D, % inhibition” value (human α1D receptor)?
The value was 90%.

What about the “Dopamine receptor D2S, % inhibition” value (human D2S receptor) of the same compound?
Its value is 31%.

What about the “Dopamine receptor D3, % inhibition” value (human D3 receptor) of the same compound?
The value was 36%.

And the “Histamine receptor H1, % inhibition” value (human H1 receptor)?
The value was 100%.

What about the “Histamine receptor H2, % inhibition” value (human H2 receptor) of the same compound?
Its value is 76%.

And the inhibition at 1 µM (recombinant human 5-HT1A)?
The inhibition at 1 µM was 55%.

And the inhibition at 1 µM [1]?
Its inhibition at 1 µM is 93%.

What about the “Dopamine receptor D4.2, % inhibition” value (human D4.2 receptor) of the same compound?
The value was 6%.
